In brackets after ≈: the same amount, converted by molar mass. Like-named read-outs stand apart in the source and are kept apart here.
Columns and labels:
Format in all cases: cell-based
P. aeruginosa 1705886 = assay: MIC, microtiter-based liquid assay (CLSI); settings: Pseudomonas aeruginosa
K. pneumoniae 1705966 = assay: MIC, microtiter-based liquid assay (CLSI); settings: Klebsiella pneumoniae
A. baumannii 1705936 = assay: MIC, microtiter-based liquid assay (CLSI); settings: Acinetobacter baumannii, MDR strain
[1] = tested on: E. faecium A6349 VanA + LNZ-R; assay: MIC, microtiter-based liquid assay (CLSI); settings: Enterococcus faecium
E. coli MG1655 parent = assay: MIC, microtiter-based liquid assay (CLSI); settings: Escherichia coli
S. aureus 11540 MRSA = assay: MIC, microtiter-based liquid assay (CLSI); settings: Staphylococcus aureus
P. aeruginosa ATCC27853 = assay: MIC, microtiter-based liquid assay (CLSI); settings: Pseudomonas aeruginosa
A. baumannii 1705943 = assay: MIC, microtiter-based liquid assay (CLSI); settings: Acinetobacter baumannii
E. coli 1705878 = assay: MIC, microtiter-based liquid assay (CLSI); settings: Escherichia coli, MDR strain
[2] = tested on: S. pneumoniae 02J1175 Mef(A); assay: MIC, microtiter-based liquid assay (CLSI); settings: Streptococcus pneumoniae
K. pneumoniae 1705949 = assay: MIC, microtiter-based liquid assay (CLSI); settings: Klebsiella pneumoniae, MDR strain
E. coli CAG12184 TolC = assay: MIC, microtiter-based liquid assay (CLSI); settings: Escherichia coli, CAG12184TOLC
E. coli ATCC25922 = assay: MIC, microtiter-based liquid assay (CLSI); settings: Escherichia coli
P. aeruginosa 1705904 = assay: MIC, microtiter-based liquid assay (CLSI); settings: Pseudomonas aeruginosa, MDR strain
B. mallei = assay: microbe, parasite or virus in culture; settings: Burkholderia mallei; for MIC50: read-out: B. mallei MIC50; for MIC90: read-out: B. mallei MIC90; for MIC: read-out: B. mallei MIC Range
Y. pestis = assay: microbe, parasite or virus in culture; settings: for MIC50: read-out: Y. pestis MIC50; for MIC: read-out: Y. pestis MIC Range
F. tularensis = assay: microbe, parasite or virus in culture; settings: Francisella tularensis; for MIC50: read-out: F. tularensis MIC50; for MIC: read-out: F. tularensis MIC Range
B. anthracis = assay: microbe, parasite or virus in culture; settings: Bacillus anthracis
B. pseudomallei = assay: microbe, parasite or virus in culture; settings: Burkholderia pseudomallei; for MIC50: read-out: B. pseudomallei MIC50; for MIC90: read-out: B. pseudomallei MIC90; for MIC: read-out: B. pseudomallei MIC Range
[3] = ATCC25922, read-out: MIC E. coli ATCC25922 + 50% HS
[4] = ATCC25922, read-out: MIC E. coli ATCC25922

SMILES	MIC (P. aeruginosa 1705886) [µg/mL]	MIC (K. pneumoniae 1705966) [µg/mL]	MIC (A. baumannii 1705936) [µg/mL]	MIC [1] [µg/mL]	MIC (E. coli MG1655 parent) [µg/mL]	MIC (S. aureus 11540 MRSA) [µg/mL]	MIC (P. aeruginosa ATCC27853) [µg/mL]	MIC (A. baumannii 1705943) [µg/mL]	MIC (E. coli 1705878) [µg/mL]	MIC [2] [µg/mL]	MIC (K. pneumoniae 1705949) [µg/mL]	MIC (E. coli CAG12184 TolC) [µg/mL]	MIC (E. coli ATCC25922; [3]) [µg/mL]	MIC (E. coli ATCC25922; [4]) [µg/mL]	MIC (P. aeruginosa 1705904) [µg/mL]	MIC50 (B. mallei) [µg/mL]	MIC90 (B. mallei) [µg/mL]	MIC (B. mallei) [µg/mL]	MIC50 (Y. pestis; Yersinia pestis) [µg/mL]	MIC (Y. pestis; Yersinia pestis) [µg/mL]	other results
C=CC[C@H](NCCCNC(=N)N)c1ccc(-n2cc3cc(-c4cc(CCC[C@H](C)N)cc(Cl)c4F)[nH]c3nc2=O)cc1 [Compound 9]	2 (≈ 3.37 µM)	0.25 (≈ 0.421 µM)	0.5 (≈ 0.843 µM)	0.5	0.25 (≈ 0.421 µM)	0.25 (≈ 0.421 µM)	2 (≈ 3.37 µM)	0.25 (≈ 0.421 µM)	0.5 (≈ 0.843 µM)	0.25 (≈ 0.421 µM)	0.5 (≈ 0.843 µM)	0.25 (≈ 0.421 µM)	0.5	0.25 (≈ 0.421 µM)	4 (≈ 6.74 µM)						
CN(C)c1cc(NC(=O)CNC(C)(C)C)c(O)c2c1C[C@H]1C[C@H]3[C@H](N(C)C)C(O)=C(C(N)=O)C(=O)[C@@]3(O)C(O)=C1C2=O [Tigecycline, reference compound]	8 (≈ 13.7 µM)	0.5 (≈ 0.854 µM)	2 (≈ 3.41 µM)	≤ 0.06	0.25 (≈ 0.427 µM)	0.25 (≈ 0.427 µM)	8 (≈ 13.7 µM)	0.125 (≈ 0.213 µM)	0.5 (≈ 0.854 µM)	≤ 0.06	1 (≈ 1.71 µM)	0.125 (≈ 0.213 µM)	0.25	0.125 (≈ 0.213 µM)	> 32						
CC(C)c1cc(CCC[C@H](C)N)cc(-c2cc3cn(-c4ccc([C@H](C)NCCCNC(=N)N)cc4)c(=O)nc3[nH]2)c1F [Compound 7]	4 (≈ 6.96 µM)	0.5 (≈ 0.87 µM)	4 (≈ 6.96 µM)	2	0.5 (≈ 0.87 µM)	0.5 (≈ 0.87 µM)	8 (≈ 13.9 µM)	0.5 (≈ 0.87 µM)	1 (≈ 1.74 µM)	0.25 (≈ 0.435 µM)	1 (≈ 1.74 µM)	0.5 (≈ 0.87 µM)	1	0.5 (≈ 0.87 µM)		0.06 (≈ 0.104 µM)	0.12 (≈ 0.209 µM)	0.03 to 0.5 (≈ 0.0522 to 0.87 µM)	0.25 (≈ 0.435 µM)	0.06 to 1 (≈ 0.104 to 1.74 µM)	MIC90 (Y. pestis; Yersinia pestis, read-out: Y. pestis MIC90): 0.5 µg/mL (≈ 0.87 µM); MIC50 (F. tularensis): 0.06 µg/mL (≈ 0.104 µM); MIC90 (F. tularensis; read-out: F. tularensis MIC90): 0.12 µg/mL (≈ 0.209 µM); MIC (F. tularensis): 0.03 to 0.5 µg/mL (≈ 0.0522 to 0.87 µM); MIC50 (B. anthracis; read-out: B. anthracis MIC50): 0.12 µg/mL (≈ 0.209 µM); MIC90 (B. anthracis; read-out: B. anthracis MIC90): 0.25 µg/mL (≈ 0.435 µM); MIC (B. anthracis; read-out: B. anthracis MIC Range): 0.03 to 0.5 µg/mL (≈ 0.0522 to 0.87 µM); MIC50 (B. pseudomallei): 2 µg/mL (≈ 3.48 µM); MIC90 (B. pseudomallei): 4 µg/mL (≈ 6.96 µM); MIC (B. pseudomallei): 1 to 8 µg/mL (≈ 1.74 to 13.9 µM)
NC[C@H]1O[C@H](O[C@H]2[C@H](O)[C@@H](O[C@H]3O[C@H](CO)[C@@H](O)[C@H](N)[C@H]3O)[C@H](N)C[C@@H]2N)[C@H](N)C[C@@H]1O [Tobramycin, reference compound]	0.5 (≈ 1.07 µM)	≤ 0.25	8 (≈ 17.1 µM)	> 128	1 (≈ 2.14 µM)	0.5 (≈ 1.07 µM)	0.5 (≈ 1.07 µM)	≤ 0.25	64 (≈ 137 µM)	16 (≈ 34.2 µM)	> 128	1 (≈ 2.14 µM)	1	1 (≈ 2.14 µM)	128 (≈ 274 µM)						
C[C@H](NCCCNC(=N)N)c1ccc(-n2cc3cc(-c4cc(C5CCC(CN)CC5)cc(Cl)c4F)[nH]c3nc2=O)cc1 (stereo partly shown) [Compound 8]	4 (≈ 6.74 µM)	1 (≈ 1.69 µM)	1 (≈ 1.69 µM)	4	0.25 (≈ 0.421 µM)	0.25 (≈ 0.421 µM)	4 (≈ 6.74 µM)	0.5 (≈ 0.843 µM)	1 (≈ 1.69 µM)	0.5 (≈ 0.843 µM)	2 (≈ 3.37 µM)	0.25 (≈ 0.421 µM)	2	0.5 (≈ 0.843 µM)	4 (≈ 6.74 µM)	≤ 0.03	0.12 (≈ 0.202 µM)	0.03 to 0.25 (≈ 0.0506 to 0.421 µM)	0.12 (≈ 0.202 µM)	0.03 to 0.5 (≈ 0.0506 to 0.843 µM)	Y. pestis MIC50 (Y. pestis): 0.06 µg/mL; MIC50 (F. tularensis): 0.06 µg/mL (≈ 0.101 µM); MIC (F. tularensis): 0.03 to 2 µg/mL (≈ 0.0506 to 3.37 µM)
CC(C)(O/N=C(\C(=O)N[C@@H]1C(=O)N2C(C(=O)[O-])=C(C[n+]3ccccc3)CS[C@H]12)c1csc(N)n1)C(=O)O [Ceftazidime, reference compound]																					MIC50 (B. pseudomallei): 2 µg/mL (≈ 3.66 µM); MIC90 (B. pseudomallei): 4 µg/mL (≈ 7.32 µM); MIC (B. pseudomallei): 1 to 64 µg/mL (≈ 1.83 to 117 µM)

From patent publication US9937183B2, “Antimicrobial compounds and methods of making and using the same” (priority 2013, dated 2018)
